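A five-concentration, 48-hour dose response in 96-well plates underlies each endpoint, interpolated linearly between surrounding concentrations. At the TGI there is no net growth.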
Experiments:
Assay in all cases: DTP human tumour cell line panel, 48 h
786-0 renal = system: 786-0 renal
A549 NSCLC = system: A549 NSCLC
ACHN renal = system: ACHN renal
BT-549 breast = system: BT-549 breast
CAKI-1 renal = system: CAKI-1 renal
HCC-2998 colon = system: HCC-2998 colon
HS 578T breast = system: HS 578T breast
MALME-3M melanoma = system: MALME-3M melanoma
MDA-N = system: MDA-N
OVCAR-5 ovarian = system: OVCAR-5 ovarian
PC-3 prostate = system: PC-3 prostate
RPMI-8226 leukemia = system: RPMI-8226 leukemia
SN12C renal = system: SN12C renal
TK-10 renal = system: TK-10 renal
UACC-257 melanoma = system: UACC-257 melanoma
UACC-62 melanoma = system: UACC-62 melanoma
UO-31 renal = system: UO-31 renal
HL-60(TB) leukemia = system: HL-60(TB) leukemia
HOP-92 NSCLC = system: HOP-92 NSCLC
NCI-H226 lung = system: NCI-H226 lung

Structure (SMILES)	TGI (786-0 renal)	TGI (A549 NSCLC)	TGI (ACHN renal)	TGI (BT-549 breast)	TGI (CAKI-1 renal)	TGI (HCC-2998 colon)	TGI (HS 578T breast)	TGI (MALME-3M melanoma)	TGI (MDA-N)	TGI (OVCAR-5 ovarian)	TGI (PC-3 prostate)	TGI (RPMI-8226 leukemia)	TGI (SN12C renal)	TGI (TK-10 renal)	TGI (UACC-257 melanoma)	TGI (UACC-62 melanoma)	TGI (UO-31 renal)	TGI (HL-60(TB) leukemia)	TGI (HOP-92 NSCLC)	TGI (NCI-H226 lung)
COC1=C(OC)C(=O)C(Cc2c(C)nc3sccn23)=C(C)C1=O	43.2 µM	40.3 µM	30.1 µM	31 µM	34.9 µM	40.3 µM	58.5 µM	31 µM	26 µM	34.6 µM	51.6 µM	24.7 µM	31 µM	32 µM	20.7 µM	23.5 µM	29.1 µM	–	–	–
N#C[C@@H](c1ccccn1)c1ncccc1[N+](=O)[O-]	> 100 µM	> 100 µM	> 100 µM	> 100 µM	> 100 µM	> 100 µM	> 100 µM	> 100 µM	> 100 µM	> 100 µM	> 100 µM	> 100 µM	> 100 µM	–	–	> 100 µM	> 100 µM	–	–	–
O=C1c2ccsc2C(=O)c2sc(CO)cc21	0.855 µM	0.125 µM	0.238 µM	0.0352 µM	9.69 µM	5.33 µM	0.191 µM	1.21 µM	< 0.0177 µM	2.12 µM	1.78 µM	–	0.0818 µM	10.1 µM	0.0993 µM	0.122 µM	0.317 µM	3.72 µM	0.994 µM	0.643 µM
C=CCCC1(CC(Sc2ccccc2)P(=O)(c2ccccc2)c2ccccc2)OCCO1 (stereo not drawn)	> 10 µM	> 10 µM	> 10 µM	> 10 µM	> 10 µM	> 10 µM	> 10 µM	> 10 µM	> 10 µM	> 10 µM	> 10 µM	> 10 µM	> 10 µM	> 10 µM	> 10 µM	> 10 µM	> 10 µM	> 10 µM	–	> 10 µM
CC1(C)OC(=O)N(c2ccccc2)C12C=Cc1cc([N+](=O)[O-])ccc1O2 (stereo not drawn)	> 100 µM	> 100 µM	> 100 µM	> 100 µM	> 100 µM	> 100 µM	> 100 µM	–	50.8 µM	> 100 µM	> 100 µM	> 100 µM	> 100 µM	> 100 µM	77 µM	> 100 µM	> 100 µM	63.7 µM	86.9 µM	> 100 µM
C(/C=C/Nc1ccc(Oc2ccccc2)cc1)=Nc1ccc(Oc2ccccc2)cc1	32.2 µM	42 µM	50.9 µM	29.3 µM	32.7 µM	29.4 µM	43.4 µM	33.7 µM	29.7 µM	50.2 µM	28.4 µM	54.1 µM	27.9 µM	34.7 µM	32 µM	–	35 µM	49.7 µM	51.2 µM	> 100 µM
CCc1cc(Cc2cc(CC)c(NC(=O)C(=O)CC(=O)c3sc(-c4cccnc4)nc3C)c(CC)c2)cc(CC)c1NC(=O)C(=O)CC(=O)c1sc(-c2cccnc2)nc1C	> 100 µM	> 100 µM	> 100 µM	> 100 µM	–	> 100 µM	> 100 µM	> 100 µM	> 100 µM	> 100 µM	> 100 µM	> 100 µM	> 100 µM	–	> 100 µM	> 100 µM	> 100 µM	> 100 µM	> 100 µM	> 100 µM
C[C@@H](c1ccccc1)n1c(N)c(C#N)c2ccc([N+](=O)[O-])cc2c1=O	31.3 µM	> 100 µM	29.5 µM	30 µM	39.3 µM	39.4 µM	69.4 µM	–	78.4 µM	–	> 100 µM	–	28.4 µM	24 µM	40.3 µM	30.4 µM	24.1 µM	27.7 µM	24 µM	13.2 µM
CC(=O)Oc1ccc2cc(-c3ccccc3OC(C)=O)c(=O)oc2c1	> 100 µM	> 100 µM	> 100 µM	> 100 µM	–	> 100 µM	> 100 µM	> 100 µM	> 100 µM	> 100 µM	> 100 µM	> 100 µM	> 100 µM	–	> 100 µM	–	28.4 µM	24.4 µM	–	70.7 µM
O=c1c2ccccc2nc(Cc2nc(-c3ccc(Cl)cc3)cs2)n1-c1ccc(Cl)cc1	> 100 µM	> 100 µM	> 100 µM	> 100 µM	> 100 µM	> 100 µM	> 100 µM	> 100 µM	> 100 µM	> 100 µM	> 100 µM	83.9 µM	–	> 100 µM	> 100 µM	> 100 µM	> 100 µM	> 100 µM	> 100 µM	> 100 µM
